These compounds were tested on HCT116 MTAP-deleted cell lines (assay: Cell viability assay (CellTiter-Glo, 7 days), HCT116 MTAP-deleted). Conditions: Homo sapiens, HCT-116; cell viability assay, HCT116 MTAP-deleted; class symbols; read-out: CC50.
Format: cell-based
How it was run: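 PRMT5 inhibitors were serially diluted in DMSO and acoustically spotted as dose-response series into plates before cell seeding. Cells were grown with compound for 7 days at 37 °C, 5% CO2, 90% humidity, then viability was read by CellTiter-Glo luminescence and reported as CC50.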
Compound Cc1ncc2c(N)nc3cc(F)c(C(=O)N4CCC[C@@H]5Oc6c(ccc(C(F)(F)F)c6F)[C@@H]54)cc3n12 [Ff-651, (4-amino-7-fluoro-1-methylimidazo[1,5-a]quinoxalin-8-yl)((4aS,9bS)-6-fluoro-7-(trifluoromethyl)-3,4,4a,9b-tetrahydrobenzofuro[3,2-b]pyridin-1(2H)-yl)methanone] has a CC50 of under 100 nM. CCN(C(=O)c1cc2c(cc1F)nc(N)c1cncn12)[C@H](C)c1ccc(C(F)(F)F)cn1 [Ff-542, (R)-4-amino-N-ethyl-7-fluoro-N-(1-(5-(trifluoromethyl)pyridin-2-yl)ethyl)imidazo[1,5-a]quinoxaline-8-carboxamide] gave a CC50 of under 100 nM. For CN(C(=O)c1ccc2nc(N)c3cncn3c2c1)[C@@H]1COc2cc(C#CC(C)(C)S(C)(=O)=O)ccc21 [Ff-526, (S)-4-amino-N-methyl-N-(6-(3-methyl-3-(methylsulfonyl)but-1-yn-1-yl)-2,3-dihydrobenzofuran-3-yl)imidazo[1,5-a]quinoxaline-8-carboxamide], the CC50 was 100 to 1000 nM. With C[C@@H]1C[C@@H]2Oc3cc(C(F)(F)F)ncc3[C@@H]2N(C(=O)c2cc3c(cc2F)nc(N)c2cncn23)C1 [Fg-20, (4-amino-7-fluoroimidazo[1,5-a]quinoxalin-8-yl)((3R,4aS,9bS)-3-methyl-7-(trifluoromethyl)-3,4,4a,9b-tetrahydrofuro[3,2-b:4,5-c′]dipyridin-1(2H)-yl)methanone] the CC50 was under 100 nM. CN(C(=O)c1cc2c(cc1F)nc(N)c1cncn12)C(c1ccc(C(F)(F)F)cn1)C(F)F (centres unmarked) [Ff-577, 4-amino-N-(2,2-difluoro-1-(5-(trifluoromethyl)pyridin-2-yl)ethyl)-7-fluoro-N-methylimidazo[1,5-a]quinoxaline-8-carboxamide] gave a CC50 of 100 to 1000 nM. Cc1ncc2c(N)nc3cc(F)c(C(=O)N4CC[C@H]5C[C@@H]4c4ccc(C(F)(F)F)nc4O5)cc3n12 [Ff-627, (4-amino-7-fluoro-1-methylimidazo[1,5-a]quinoxalin-8-yl)((2S,6R)-9-(trifluoromethyl)-3,4-dihydro-2H-2,6-methanopyrido[2,3-b][1,5]oxazocin-5(6H)-yl)methanone] gave a CC50 of under 100 nM. In the case of CN(C(=O)c1cc2c(cc1F)nc(N)c1cncn12)[C@@H]1COc2cc(C3CC34CCC4)ccc21 (stereo partly drawn) [Ff-476, 4-amino-7-fluoro-N-methyl-N-((3S)-6-(spiro[2.3]hexan-1-yl)-2,3-dihydrobenzofuran-3-yl)imidazo[1,5-a]quinoxaline-8-carboxamide], the CC50 is reported as 100 to 1000 nM.

Same assay, conditions: Homo sapiens, HCT-116; cell viability, HCT116 MTAP-deleted; class symbols; read-out: CC50
C[C@@H]1CN(C(=O)c2cc3c(cc2F)nc(N)c2cncn23)[C@H]2c3ccc(-c4cnn(C(F)F)c4)c(F)c3C[C@H]2O1 [Ff-199, (4-amino-7-fluoroimidazo[1,5-a]quinoxalin-8-yl)((2R,4aS,9aR)-7-(1-(difluoromethyl)-1H-pyrazol-4-yl)-8-fluoro-2-methyl-2,3,9,9a-tetrahydroindeno[2,1-b][1,4]oxazin-4(4aH)-yl)methanone] was tested, and the CC50 was under 100 nM. In the case of C[C@H]1CN(C(=O)c2cc3c(cc2F)nc(N)c2cncn23)[C@H]2c3ccccc3C[C@H]2O1 (racemic) [Ff-55, Rac-(4-amino-7-fluoroimidazo[1,5-a]quinoxalin-8-yl)((2S,4aS,9aR)-2-methyl-2,3,9,9a-tetrahydroindeno[2,1-b][1,4]oxazin-4(4aH)-yl)methanone], the CC50 is reported as under 100 nM. In the case of CN(C(=O)c1cc2c(cc1F)nc(N)c1cncn12)C1CCc2nc(Cl)ccc21 (centres unmarked) [Ff-208, 4-amino-N-(2-chloro-6,7-dihydro-5H-cyclopenta[b]pyridin-5-yl)-7-fluoro-N-methylimidazo[1,5-a]quinoxaline-8-carboxamide], the CC50 is reported as 100 to 1000 nM. Work on Nc1nc2cc(F)c(C(=O)N3CCO[C@@H]4Cc5cc(C(F)F)c(F)cc5[C@@H]43)cc2n2cncc12 [Ff-168, (4-amino-7-fluoroimidazo[1,5-a]quinoxalin-8-yl)((4aS,9aR)-7-(difluoromethyl)-6-fluoro-2,3,9,9a-tetrahydroindeno[2,1-b][1,4]oxazin-4(4aH)-yl)methanone] yielded a CC50 of under 100 nM.

Reference: patent US12448388B2, “PRMT5 inhibitors and uses thereof” (Gilead Sciences, Inc., priority 2023, dated 2025)
